Measurements taken from paper PMC11484510, “Antibacterial activity of structurally diverse natural prenylated isobavachalcone derivatives” (RSC Advances, 2024).
“Also recorded” adds a separate entry of the source.

Columns and labels:
[1] = Cell viability assay (MTT); type: cell-based, murine; details: mouse, RAW 264.7 macrophage cells; RAW 264.7 macrophage cell line, MTT assay
Experimental: RAW 264.7 cells were acquired from the American type culture collection (ATCC, Manassas, VA) and cultured in Dulbecco's modified eagle's medium (DMEM, Gibco, Life Technologies, NY) supplemented with 10% fetal bovine serum (FBS) at 37 °C and 5% CO2. MTT dye (Himedia) was used to detect CC50 values. The antibiotics ciprofloxacin hydrochloride monohydrate (Himedia), kanamycin sulfate (Himedia), and vancomycin (Himedia) were used for reference in microbiological assays.
The effect of compounds (IBC, IBC-2, and IBC-3) on the viability of cells was evaluated at different concentrations against macrophage cell lines through the 3-(4,5-dimethylthiazol2-yl)-2, 5-diphenyltetrazolium bromide (MTT) assay. The RAW 264.7 cells are monocyte/macrophage-like cells originating from an Abelson leukemia virus-transformed cell line derived from BALB/c mice. Due to their reliability and consistency, these cell lines are widely utilized for both in vitro and in vivo analyses.[52] The MTT assay is a colorimetric assay used to measure the viability and cytotoxicity of cells. The cells (2 × 10^4 cells per well) were grown at 37 °C with 5% CO2 for 48 hours, then exposed to compounds with different concentrations. […] After 20–21 hours, 20 μL of MTT dye at 2.5 mg mL^−1 concentration was added to each well and incubated for 4 hours. 100 μL DMSO solubilized the water-insoluble purple and white formazan produced.[53] The formation of the formazan salt by mitochondrial dehydrogenases was measured at 570.0 nm after incubating for 20 min. The percentage cytotoxicity was calculated with respect to the untreated cells, and the CC50 value was calculated. CC50 was defined as the concentration of an inhibitor that reduces cellular activities by 50% compared to untreated control cultures. The CC50 values were calculated as the concentration where the absorbance was reduced by 50% using GraphPad Prism software.[54] The selectivity index (SI) determines the safety profile of the compound. It is calculated as the ratio of compound concentration at which 50% of cell growth is inhibited compared to untreated cells (CC50) to the effective inhibiting concentration against bacterial strain (MIC). The high SI (>10 fold of MIC) of a drug is proven to have a favorable safety profile.[28] Selectivity index (SI) = CC50 of the compound (μM)/MIC of the compound (μM).

S. aureus ATCC 29213 = test: Time-kill assay; type: cell-based

Question: What does the source list for `CC(C)=CCc1c(O)ccc2c1O/C(=C\c1ccc(O)cc1)C2=O` [IBC-3, (Z)-6-hydroxy-2-(4-hydroxybenzylidene)-7-(3-methylbut-2-en-1-yl)benzofuran-3(2H)-one]?
Answer: CC50 [1]: 50 µM; CFU count of S. aureus ATCC 29213 in time-kill study (S. aureus ATCC 29213; 2× MIC and 4× MIC, with increasing time (up to 24 h)): below the detection limit; Time-kill profile (S. aureus ATCC 29213; MIC, 2× MIC, 4× MIC, 1 h to 24 h, 37 °C): concentration-dependent killing effect; also recorded: concentration and time-dependent killing effects
